{
  "source": "paper PMC6891286",
  "about": "“Towards the Development of an In vivo Chemical Probe for Cyclin G Associated Kinase (GAK)” (Molecules, 2019)",
  "assay_in_all_cases": "KINOMEscan",
  "type_in_all_cases": "binding",
  "conditions_in_all_cases": "35 at 1 µM; read-out: % inhibition",
  "key": {"[1]": {"target": "T1, ABL1(F317L)-phosphorylated (Homo sapiens, UniProt P00519, F317L)", "T1 construct": "purchased Eurofins DiscoverX (KINOMEscan)", "procedure": "(§1) KinomeScan Assay on 35 was performed as previously described at EuroFins DiscoverX (Fremont, CA, USA)."}, "ABL2": {"target": "T2, ABL2 (Homo sapiens, UniProt P42684)", "T2 construct": "purchased Eurofins DiscoverX (KINOMEscan)", "procedure": "as §1"}, "ACVR1B": {"target": "T3, ACVR1B (Homo sapiens, UniProt P36896)", "T3 construct": "purchased Eurofins DiscoverX (KINOMEscan)", "procedure": "as §1"}, "CDK7": {"target": "T4, CDK7 (Homo sapiens, UniProt P50613)", "T4 construct": "purchased Eurofins DiscoverX (KINOMEscan)", "procedure": "as §1"}, "CDK8": {"target": "T5, CDK8 (Homo sapiens, UniProt P49336)", "T5 construct": "purchased Eurofins DiscoverX (KINOMEscan)", "procedure": "as §1"}, "CDKL5": {"target": "T6, CDKL5 (Homo sapiens, UniProt O76039)", "T6 construct": "purchased Eurofins DiscoverX (KINOMEscan)", "procedure": "as §1"}, "CSNK1E": {"target": "T7, CSNK1E (Homo sapiens, UniProt P49674)", "T7 construct": "purchased Eurofins DiscoverX (KINOMEscan)", "procedure": "as §1"}, "CSNK1G1": {"target": "T8, CSNK1G1 (Homo sapiens, UniProt Q9HCP0)", "T8 construct": "purchased Eurofins DiscoverX (KINOMEscan)", "procedure": "as §1"}, "CSNK1G3": {"target": "T9, CSNK1G3 (Homo sapiens, UniProt Q9Y6M4)", "T9 construct": "purchased Eurofins DiscoverX (KINOMEscan)", "procedure": "as §1"}, "DCAMKL3": {"target": "T10, DCAMKL3 (Homo sapiens, UniProt Q9C098)", "T10 construct": "purchased Eurofins DiscoverX (KINOMEscan)", "procedure": "as §1"}, "DMPK2": {"target": "T11, DMPK2 (Homo sapiens, UniProt Q6DT37)", "T11 construct": "purchased Eurofins DiscoverX (KINOMEscan)", "procedure": "as §1"}, "DRAK1": {"target": "T12, DRAK1 (Homo sapiens, UniProt Q9UEE5)", "T12 construct": "purchased Eurofins DiscoverX (KINOMEscan)", "procedure": "as §1"}, "DYRK1B": {"target": "T13, DYRK1B (Homo sapiens, UniProt Q9Y463)", "T13 construct": "purchased Eurofins DiscoverX (KINOMEscan)", "procedure": "as §1"}, "EGFR(L858R)": {"target": "T14, EGFR(L858R) (Homo sapiens, UniProt P00533, L858R)", "T14 construct": "purchased Eurofins DiscoverX (KINOMEscan)", "procedure": "as §1"}, "EGFR(L858R,T790M)": {"target": "T15, EGFR(L858R,T790M) (Homo sapiens, UniProt P00533, L858R/T790M)", "T15 construct": "purchased Eurofins DiscoverX (KINOMEscan)", "procedure": "as §1"}, "ERK2": {"target": "T16, ERK2 (Homo sapiens, UniProt P28482)", "T16 construct": "purchased Eurofins DiscoverX (KINOMEscan)", "procedure": "as §1"}, "FER": {"target": "T17, FER (Homo sapiens, UniProt P16591)", "T17 construct": "purchased Eurofins DiscoverX (KINOMEscan)", "procedure": "as §1"}, "FLT3": {"target": "T18, FLT3 (Homo sapiens, UniProt P36888)", "T18 construct": "purchased Eurofins DiscoverX (KINOMEscan)", "procedure": "as §1"}, "FLT3(D835H)": {"target": "T19, FLT3(D835H) (Homo sapiens, UniProt P36888, D835H)", "T19 construct": "purchased Eurofins DiscoverX (KINOMEscan)", "procedure": "as §1"}, "GRK1": {"target": "T20, GRK1 (Homo sapiens, UniProt Q15835)", "T20 construct": "purchased Eurofins DiscoverX (KINOMEscan)", "procedure": "as §1"}, "HIPK3": {"target": "T21, HIPK3 (Homo sapiens, UniProt Q9H422)", "T21 construct": "purchased Eurofins DiscoverX (KINOMEscan)", "procedure": "as §1"}, "IKK-alpha": {"target": "T22, IKK-alpha (Homo sapiens, UniProt O15111)", "T22 construct": "purchased Eurofins DiscoverX (KINOMEscan)", "procedure": "as §1"}, "IKK-beta": {"target": "T23, IKK-beta (Homo sapiens, UniProt O14920)", "T23 construct": "purchased Eurofins DiscoverX (KINOMEscan)", "procedure": "as §1"}, "IRAK3": {"target": "T24, IRAK3 (Homo sapiens, UniProt Q9Y616)", "T24 construct": "purchased Eurofins DiscoverX (KINOMEscan)", "procedure": "as §1"}, "[2]": {"target": "T25, JAK2(JH1domain-catalytic) (Homo sapiens, UniProt O60674)", "T25 construct": "JAK2(JH1domain-catalytic); purchased Eurofins DiscoverX (KINOMEscan)", "procedure": "as §1"}, "LZK": {"target": "T26, LZK (Homo sapiens, UniProt O43283)", "T26 construct": "purchased Eurofins DiscoverX (KINOMEscan)", "procedure": "as §1"}, "MAP3K2": {"target": "T27, MAP3K2 (Homo sapiens, UniProt Q9Y2U5)", "T27 construct": "purchased Eurofins DiscoverX (KINOMEscan)", "procedure": "as §1"}, "MAP4K2": {"target": "T28, MAP4K2 (Homo sapiens, UniProt Q12851)", "T28 construct": "purchased Eurofins DiscoverX (KINOMEscan)", "procedure": "as §1"}, "MARK2": {"target": "T29, MARK2 (Homo sapiens, UniProt Q7KZI7)", "T29 construct": "purchased Eurofins DiscoverX (KINOMEscan)", "procedure": "as §1"}, "MERTK": {"target": "T30, MERTK (Homo sapiens, UniProt Q12866)", "T30 construct": "purchased Eurofins DiscoverX (KINOMEscan)", "T30 sequence (Q12866 21-999)": "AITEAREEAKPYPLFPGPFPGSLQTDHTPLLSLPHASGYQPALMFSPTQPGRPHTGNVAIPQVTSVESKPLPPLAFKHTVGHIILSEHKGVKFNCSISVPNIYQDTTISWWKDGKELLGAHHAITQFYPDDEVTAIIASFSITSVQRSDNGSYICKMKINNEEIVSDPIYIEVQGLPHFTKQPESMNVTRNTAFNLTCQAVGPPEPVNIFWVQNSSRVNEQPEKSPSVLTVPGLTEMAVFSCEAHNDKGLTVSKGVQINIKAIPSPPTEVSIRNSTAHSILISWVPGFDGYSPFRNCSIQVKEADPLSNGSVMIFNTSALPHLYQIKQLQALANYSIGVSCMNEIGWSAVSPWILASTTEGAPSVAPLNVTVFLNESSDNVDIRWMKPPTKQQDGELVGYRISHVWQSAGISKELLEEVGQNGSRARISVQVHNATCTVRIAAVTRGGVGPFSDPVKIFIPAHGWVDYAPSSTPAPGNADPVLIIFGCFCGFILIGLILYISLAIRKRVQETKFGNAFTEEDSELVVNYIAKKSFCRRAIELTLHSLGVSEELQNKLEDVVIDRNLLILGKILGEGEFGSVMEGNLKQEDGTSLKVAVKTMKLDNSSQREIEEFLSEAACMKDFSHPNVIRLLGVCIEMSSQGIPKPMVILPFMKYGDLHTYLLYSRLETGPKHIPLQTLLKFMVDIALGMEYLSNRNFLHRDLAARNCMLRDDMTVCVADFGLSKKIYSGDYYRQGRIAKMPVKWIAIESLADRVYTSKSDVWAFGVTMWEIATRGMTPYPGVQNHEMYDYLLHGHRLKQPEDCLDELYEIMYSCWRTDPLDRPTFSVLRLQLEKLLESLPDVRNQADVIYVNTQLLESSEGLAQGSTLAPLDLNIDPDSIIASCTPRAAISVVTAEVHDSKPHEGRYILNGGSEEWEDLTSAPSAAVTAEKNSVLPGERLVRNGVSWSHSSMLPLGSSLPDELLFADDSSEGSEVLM", "procedure": "as §1"}, "MRCKA": {"target": "T31, MRCKA (Homo sapiens, UniProt Q5VT25)", "T31 construct": "purchased Eurofins DiscoverX (KINOMEscan)", "procedure": "as §1"}, "PAK3": {"target": "T32, PAK3 (Homo sapiens, UniProt O75914)", "T32 construct": "purchased Eurofins DiscoverX (KINOMEscan)", "procedure": "as §1"}, "PIK3CA(Q546K)": {"target": "T33, PIK3CA(Q546K) (Homo sapiens, UniProt P42336, Q546K)", "T33 construct": "purchased Eurofins DiscoverX (KINOMEscan)", "procedure": "as §1"}, "[3]": {"target": "T34, RSK4(Kin.Dom.1-N-terminal) (Homo sapiens, UniProt Q9UK32)", "T34 construct": "RSK4(Kin.Dom.1-N-terminal); purchased Eurofins DiscoverX (KINOMEscan)", "T34 sequence (Q9UK32 1-400 limits assumed)": "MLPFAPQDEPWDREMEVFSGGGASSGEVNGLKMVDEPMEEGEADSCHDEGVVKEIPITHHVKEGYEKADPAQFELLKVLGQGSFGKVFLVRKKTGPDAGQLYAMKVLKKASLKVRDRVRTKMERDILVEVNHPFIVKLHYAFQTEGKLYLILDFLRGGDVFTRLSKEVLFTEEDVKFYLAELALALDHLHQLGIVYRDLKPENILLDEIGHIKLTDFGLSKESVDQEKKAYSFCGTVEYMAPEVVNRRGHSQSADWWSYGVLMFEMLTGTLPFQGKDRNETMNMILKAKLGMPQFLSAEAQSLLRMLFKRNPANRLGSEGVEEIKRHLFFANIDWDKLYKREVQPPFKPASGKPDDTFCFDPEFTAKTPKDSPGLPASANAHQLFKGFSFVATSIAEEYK", "procedure": "as §1"}, "SGK3": {"target": "T35, SGK3 (Homo sapiens, UniProt Q96BR1)", "T35 construct": "purchased Eurofins DiscoverX (KINOMEscan)", "T35 sequence (Q96BR1 whole entry)": "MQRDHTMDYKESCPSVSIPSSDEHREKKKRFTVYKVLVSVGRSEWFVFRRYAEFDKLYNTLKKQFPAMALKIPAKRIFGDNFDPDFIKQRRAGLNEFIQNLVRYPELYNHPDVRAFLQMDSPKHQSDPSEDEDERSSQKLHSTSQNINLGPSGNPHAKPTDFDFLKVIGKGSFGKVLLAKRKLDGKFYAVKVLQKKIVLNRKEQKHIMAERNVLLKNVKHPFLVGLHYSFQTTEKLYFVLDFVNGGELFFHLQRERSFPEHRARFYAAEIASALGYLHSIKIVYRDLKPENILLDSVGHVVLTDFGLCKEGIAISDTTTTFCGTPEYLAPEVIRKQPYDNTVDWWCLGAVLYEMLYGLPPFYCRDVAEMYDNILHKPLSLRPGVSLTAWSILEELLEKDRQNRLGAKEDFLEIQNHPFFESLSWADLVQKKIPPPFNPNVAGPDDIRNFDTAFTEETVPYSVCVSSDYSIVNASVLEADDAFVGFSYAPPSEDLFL", "procedure": "as §1"}, "STK33": {"target": "T36, STK33 (Homo sapiens, UniProt Q9BYT3)", "T36 construct": "purchased Eurofins DiscoverX (KINOMEscan)", "T36 sequence (Q9BYT3 whole entry)": "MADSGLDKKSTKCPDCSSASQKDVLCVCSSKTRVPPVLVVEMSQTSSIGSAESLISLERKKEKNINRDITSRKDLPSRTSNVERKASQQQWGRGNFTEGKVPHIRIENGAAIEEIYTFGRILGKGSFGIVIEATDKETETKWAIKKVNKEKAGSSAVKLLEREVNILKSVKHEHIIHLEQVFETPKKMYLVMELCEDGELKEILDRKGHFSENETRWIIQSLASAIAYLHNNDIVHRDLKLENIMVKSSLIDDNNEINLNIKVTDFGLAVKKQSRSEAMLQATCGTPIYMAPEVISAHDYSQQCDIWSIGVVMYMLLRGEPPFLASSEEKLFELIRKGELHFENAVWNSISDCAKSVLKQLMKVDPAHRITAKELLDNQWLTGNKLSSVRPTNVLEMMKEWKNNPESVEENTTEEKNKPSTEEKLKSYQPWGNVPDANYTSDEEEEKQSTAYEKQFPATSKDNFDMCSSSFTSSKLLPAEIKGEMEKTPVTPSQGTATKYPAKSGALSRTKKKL", "procedure": "as §1"}, "TNIK": {"target": "T37, TNIK (Homo sapiens, UniProt Q9UKE5)", "T37 construct": "purchased Eurofins DiscoverX (KINOMEscan)", "procedure": "as §1"}, "TSSK3": {"target": "T38, TSSK3 (Homo sapiens, UniProt Q96PN8)", "T38 construct": "purchased Eurofins DiscoverX (KINOMEscan)", "procedure": "as §1"}, "YES": {"target": "T39, YES (Homo sapiens, UniProt P07947)", "T39 construct": "purchased EuroFins DiscoverX (Fremont, CA, USA)", "T39 sequence (P07947 whole entry)": "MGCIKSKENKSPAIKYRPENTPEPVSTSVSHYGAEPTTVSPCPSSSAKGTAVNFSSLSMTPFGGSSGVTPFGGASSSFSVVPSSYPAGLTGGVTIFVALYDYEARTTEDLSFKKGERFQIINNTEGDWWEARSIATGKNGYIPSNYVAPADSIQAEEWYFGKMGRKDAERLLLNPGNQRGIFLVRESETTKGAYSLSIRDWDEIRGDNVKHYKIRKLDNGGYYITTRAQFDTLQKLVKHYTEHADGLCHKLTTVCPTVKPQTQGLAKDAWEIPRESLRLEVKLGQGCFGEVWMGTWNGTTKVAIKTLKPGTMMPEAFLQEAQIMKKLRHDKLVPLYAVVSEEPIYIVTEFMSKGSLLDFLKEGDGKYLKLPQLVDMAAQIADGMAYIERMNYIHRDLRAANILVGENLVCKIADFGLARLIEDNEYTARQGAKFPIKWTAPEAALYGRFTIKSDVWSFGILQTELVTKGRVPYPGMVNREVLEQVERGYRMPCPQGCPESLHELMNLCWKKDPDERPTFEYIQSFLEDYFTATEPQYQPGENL", "procedure": "as §1"}, "YSK4": {"target": "T40, YSK4 (Homo sapiens, UniProt Q56UN5)", "T40 construct": "purchased Eurofins DiscoverX (KINOMEscan)", "T40 sequence (Q56UN5 whole entry)": "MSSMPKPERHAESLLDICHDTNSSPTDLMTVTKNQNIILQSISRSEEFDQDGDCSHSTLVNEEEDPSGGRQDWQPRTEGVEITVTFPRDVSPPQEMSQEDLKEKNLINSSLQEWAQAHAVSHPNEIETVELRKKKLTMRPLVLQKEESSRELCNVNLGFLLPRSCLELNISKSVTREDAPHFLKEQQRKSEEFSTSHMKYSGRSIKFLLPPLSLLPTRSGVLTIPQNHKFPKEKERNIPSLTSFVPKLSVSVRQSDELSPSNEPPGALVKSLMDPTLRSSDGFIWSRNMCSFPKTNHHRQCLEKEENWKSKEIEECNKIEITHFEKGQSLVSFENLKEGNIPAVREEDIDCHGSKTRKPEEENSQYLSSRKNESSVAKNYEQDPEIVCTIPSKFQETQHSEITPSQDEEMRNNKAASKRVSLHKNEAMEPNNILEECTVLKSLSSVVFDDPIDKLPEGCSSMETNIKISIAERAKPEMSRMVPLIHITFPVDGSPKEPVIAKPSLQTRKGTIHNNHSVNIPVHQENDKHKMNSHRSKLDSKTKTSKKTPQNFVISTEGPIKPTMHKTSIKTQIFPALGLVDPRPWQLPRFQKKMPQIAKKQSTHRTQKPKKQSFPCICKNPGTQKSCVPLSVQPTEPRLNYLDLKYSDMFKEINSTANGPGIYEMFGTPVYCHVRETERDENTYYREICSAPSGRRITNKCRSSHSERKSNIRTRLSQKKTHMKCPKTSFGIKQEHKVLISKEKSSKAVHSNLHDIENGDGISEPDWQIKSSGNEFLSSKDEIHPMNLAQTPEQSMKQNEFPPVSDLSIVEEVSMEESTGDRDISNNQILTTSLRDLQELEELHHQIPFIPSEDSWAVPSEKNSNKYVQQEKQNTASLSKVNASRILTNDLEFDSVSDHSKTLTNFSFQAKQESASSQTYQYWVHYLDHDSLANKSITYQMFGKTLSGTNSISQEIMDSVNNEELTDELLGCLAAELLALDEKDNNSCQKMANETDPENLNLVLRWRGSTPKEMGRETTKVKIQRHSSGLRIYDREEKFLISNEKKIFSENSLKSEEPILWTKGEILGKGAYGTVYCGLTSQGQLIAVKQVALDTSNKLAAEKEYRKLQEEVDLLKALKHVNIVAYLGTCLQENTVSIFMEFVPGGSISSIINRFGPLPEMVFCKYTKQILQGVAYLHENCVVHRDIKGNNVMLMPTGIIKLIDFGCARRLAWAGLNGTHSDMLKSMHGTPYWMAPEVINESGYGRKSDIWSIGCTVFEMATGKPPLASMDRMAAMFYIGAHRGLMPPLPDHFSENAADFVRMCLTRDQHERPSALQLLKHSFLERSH", "procedure": "as §1"}, "p38-beta": {"target": "T41, p38-beta (Homo sapiens, UniProt Q15759)", "T41 construct": "purchased Eurofins DiscoverX (KINOMEscan)", "T41 sequence (Q15759 whole entry)": "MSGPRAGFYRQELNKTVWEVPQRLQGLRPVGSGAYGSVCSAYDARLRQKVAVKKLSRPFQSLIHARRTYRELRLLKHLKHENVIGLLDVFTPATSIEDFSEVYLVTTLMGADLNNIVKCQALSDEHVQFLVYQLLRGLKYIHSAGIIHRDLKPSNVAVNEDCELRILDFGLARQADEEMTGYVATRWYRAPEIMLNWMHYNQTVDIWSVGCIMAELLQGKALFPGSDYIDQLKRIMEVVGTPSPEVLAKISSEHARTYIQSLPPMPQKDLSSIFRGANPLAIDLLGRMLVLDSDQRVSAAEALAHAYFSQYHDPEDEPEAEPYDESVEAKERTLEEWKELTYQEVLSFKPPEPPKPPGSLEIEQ", "procedure": "as §1"}, "p38-gamma": {"target": "T42, p38-gamma (Homo sapiens, UniProt P53778)", "T42 construct": "purchased Eurofins DiscoverX (KINOMEscan)", "T42 sequence (P53778 whole entry)": "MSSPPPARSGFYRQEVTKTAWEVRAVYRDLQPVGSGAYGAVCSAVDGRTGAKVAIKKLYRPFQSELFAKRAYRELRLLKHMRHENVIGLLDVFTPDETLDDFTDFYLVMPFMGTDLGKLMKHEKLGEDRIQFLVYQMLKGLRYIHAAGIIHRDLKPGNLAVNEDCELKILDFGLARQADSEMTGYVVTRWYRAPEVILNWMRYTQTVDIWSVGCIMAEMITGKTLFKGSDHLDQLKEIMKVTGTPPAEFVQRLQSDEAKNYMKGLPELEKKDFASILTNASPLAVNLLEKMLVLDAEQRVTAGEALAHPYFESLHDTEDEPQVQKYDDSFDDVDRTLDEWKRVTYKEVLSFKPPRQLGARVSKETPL", "procedure": "as §1"}},
  "data": [
    {"smiles": "Brc1ccc2nccc(Nc3ccc4cn[nH]c4c3)c2c1", "note": "[Compound 35, 6-Bromo-N-(1H-indazol-6-yl)quinolin-4-amine]", "values": [
      {"measurement": "activity at 1 µM", "setting": "[1]", "value": 85, "unit": "%"},
      {"measurement": "activity at 1 µM", "setting": "ABL2", "value": 88, "unit": "%"},
      {"measurement": "activity at 1 µM", "setting": "ACVR1B", "value": 100, "unit": "%"},
      {"measurement": "activity at 1 µM", "setting": "CDK7", "value": 100, "unit": "%"},
      {"measurement": "activity at 1 µM", "setting": "CDK8", "value": 83, "unit": "%"},
      {"measurement": "activity at 1 µM", "setting": "CDKL5", "value": 100, "unit": "%"},
      {"measurement": "activity at 1 µM", "setting": "CSNK1E", "value": 100, "unit": "%"},
      {"measurement": "activity at 1 µM", "setting": "CSNK1G1", "value": 100, "unit": "%"},
      {"measurement": "activity at 1 µM", "setting": "CSNK1G3", "value": 100, "unit": "%"},
      {"measurement": "activity at 1 µM", "setting": "DCAMKL3", "value": 99, "unit": "%"},
      {"measurement": "activity at 1 µM", "setting": "DMPK2", "value": 73, "unit": "%"},
      {"measurement": "activity at 1 µM", "setting": "DRAK1", "value": 100, "unit": "%"},
      {"measurement": "activity at 1 µM", "setting": "DYRK1B", "value": 100, "unit": "%"},
      {"measurement": "activity at 1 µM", "setting": "EGFR(L858R)", "value": 100, "unit": "%"},
      {"measurement": "activity at 1 µM", "setting": "EGFR(L858R,T790M)", "value": 98, "unit": "%"},
      {"measurement": "activity at 1 µM", "setting": "ERK2", "value": 100, "unit": "%"},
      {"measurement": "activity at 1 µM", "setting": "FER", "value": 96, "unit": "%"},
      {"measurement": "activity at 1 µM", "setting": "FLT3", "value": 100, "unit": "%"},
      {"measurement": "activity at 1 µM", "setting": "FLT3(D835H)", "value": 94, "unit": "%"},
      {"measurement": "activity at 1 µM", "setting": "GRK1", "value": 68, "unit": "%"},
      {"measurement": "activity at 1 µM", "setting": "HIPK3", "value": 87, "unit": "%"},
      {"measurement": "activity at 1 µM", "setting": "IKK-alpha", "value": 100, "unit": "%"},
      {"measurement": "activity at 1 µM", "setting": "IKK-beta", "value": 100, "unit": "%"},
      {"measurement": "activity at 1 µM", "setting": "IRAK3", "value": 100, "unit": "%"},
      {"measurement": "activity at 1 µM", "setting": "[2]", "value": 98, "unit": "%"},
      {"measurement": "activity at 1 µM", "setting": "LZK", "value": 100, "unit": "%"},
      {"measurement": "activity at 1 µM", "setting": "MAP3K2", "value": 100, "unit": "%"},
      {"measurement": "activity at 1 µM", "setting": "MAP4K2", "value": 100, "unit": "%"},
      {"measurement": "activity at 1 µM", "setting": "MARK2", "value": 100, "unit": "%"},
      {"measurement": "activity at 1 µM", "setting": "MERTK", "value": 85, "unit": "%"},
      {"measurement": "activity at 1 µM", "setting": "MRCKA", "value": 100, "unit": "%"},
      {"measurement": "activity at 1 µM", "setting": "PAK3", "value": 100, "unit": "%"},
      {"measurement": "activity at 1 µM", "setting": "PIK3CA(Q546K)", "value": 100, "unit": "%"},
      {"measurement": "activity at 1 µM", "setting": "[3]", "value": 100, "unit": "%"},
      {"measurement": "activity at 1 µM", "setting": "SGK3", "value": 100, "unit": "%"},
      {"measurement": "activity at 1 µM", "setting": "STK33", "value": 100, "unit": "%"},
      {"measurement": "activity at 1 µM", "setting": "TNIK", "value": 97, "unit": "%"},
      {"measurement": "activity at 1 µM", "setting": "TSSK3", "value": 77, "unit": "%"},
      {"measurement": "activity at 1 µM", "setting": "YES", "value": 100, "unit": "%"},
      {"measurement": "activity at 1 µM", "setting": "YSK4", "value": 98, "unit": "%"},
      {"measurement": "activity at 1 µM", "setting": "p38-beta", "value": 100, "unit": "%"},
      {"measurement": "activity at 1 µM", "setting": "p38-gamma", "value": 94, "unit": "%"}
    ]}
  ]
}
